Source: US20100075435A1, “BIOTINYLATED THYROXINE” (priority 2008, published 2010)

Tested on: T4-streptavidin (Biotin-PEG4-T4 streptavidin conjugate) immobilized flow cell Fc3
Test: SPR bivalent kinetic analysis of antibodies on T4-streptavidin immobilized flow cell (Biocore 3000, CM5 chip)
Type: binding
Conditions: comparison of antibodies 1 and 2
Procedure: The biotinylated thyroxine obtained in Example 1 (PEG n=4) (Biotin-PEG4-T4) (1.2 mg) was dissolved in 189.8 microliters of DMSO.
A 98 microliter quantity of 1 mg/mL of streptavidin and 1.33 microliters of the DMSO solution (5 mM) of Biotin-PEG4-T4 obtained above were dissolved in 0.67 microliters of HBSN. Here, the streptavidin:biotin ratio was 1:4 (mole ratio).
A Biocore 3000 (Biocore) was employed as the surface plasmon resonance (SPR) device. CM5 sensor chips were employed, and four flow cells (Fc 1 to 4) were prepared according to the following procedure. The flow rate was 10 microliters/min.
A flow of a 70 microliter quantity of a mixed solution of equal quantities of EDC (1-ethyl-3-(3-dimethylaminopropyl)carbodiimide) and NHS (N-hydroxysuccinimide) was run (7 minutes), after which a flow of a 70 microliter quantity of a solution of streptavidin in […] (0.2 mg/mL, pH 5.0) was run (7 minutes). Subsequently, a flow of ethanolamine was similarly run.
A flow of a 70 microliter quantity of mixed solution of equal quantities of EDC and NHS was run (7 minutes), after which a flow of a 70 microliter solution of T4-streptavidin in […] (0.2 mg/mL, pH 5.0) was run (7 minutes). […]
It was necessary to conduct interaction analysis at the minimum level of immobilization within the range over which the S/N ratio could be calculated. […]

COC(=O)C(Cc1cc(I)c(Oc2cc(I)c(O)c(I)c2)c(I)c1)NC(=O)CCOCCOCCOCCOCCNC(=O)CCCCC1SCC2NC(=O)NC21 (stereo not shown) [Example 1, Biotinylated Thyroxine (PEG n=4)]
binding rates: about the same binding rates
